According to patent US8846951B2 (AbbVie Inc., priority 2009, dated 2014):
Like-named read-outs stand apart in the source and are kept apart here.

Experiments:
[1] = target: T1, h-5-HT6 receptor (Homo sapiens, UniProt P50406); assay: Human 5-HT6 receptor radioligand binding assay (HEK293 membranes, [3H]-LSD)
T1 construct: expressed in transfected cells; host or cells: HEK293 cells (membranes)
Experimental: (v) Human 5-HT6 Receptor Radioligand Binding Assay
Preparation of Membranes by Ultrasonic Treatment and Differential Centrifugation
Cells from stable clonal cell lines expressing the corresponding receptor (5-HT6) were washed with PBS (without Ca^++, Mg^++) and harvested in PBS with 0.02% EDTA. The cells were collected by centrifugation at 500 g for 10 minutes at 4° C., washed with PBS and centrifuged (500 g, 10 minutes at 4° C.). The pellets were stored at −80° C. until use. For membrane preparation, the thawed cell pellet was resuspended in ice-cold sucrose buffer (0.25 M sucrose, 10 mM HEPES (pH 7.4), 1 mM phenylmethylsulfonyl fluoride (PMSF) in DMSO, 5 μg/ml Pepstatin-A, 3 mM EDTA, 0.025% Bacitracin) and homogenized with a Branson Sonifier W-250 (Settings: Timer 4; Output Control 3; Duty Cycle constant; 2 to 3 cycles). Cell disruption was checked with the aid of a microscope. Remaining unbroken cells were pelleted at 1,000 g for 10 minutes at 4° C. The sucrose buffer supernatant was then centrifuged at 60,000 g for 1 hour at 4° C. (Beckman Ultracentrifuge XL 80). The pellet was resuspended in 30 mL of ice-cold Tris buffer (20 mM TRIS (pH 7.4), 5 μg/mL Pepstatin A, 0.1 mM PMSF, 3 mM EDTA) by pipetting through a 10 mL serological pipette and centrifuged for 1 hour at 4° C. at 60,000 g. A final resuspension was performed in a small volume of ice-cold Tris buffer (see above) by pressing through a serological pipette followed by ultrasonic treatment with a Branson Sonifier W-250 (Settings: Timer 1; Output Control 3; Duty Cycle constant; 1 cycle). Protein concentration was determined (BCA-Kit; Pierce) and aliquots stored at −80° C. or in liquid nitrogen for long-term storage.
Receptor Binding Experiments
All receptor binding experiments were carried out in the corresponding assay buffer in a total volume of 200 μL in the presence of various concentrations of test compound (10^−5 M to 10^−9 M, tenfold serial dilution, duplicate determinations). The assays were terminated by filtration on polyethylenimine (PEI 0.1% or 0.3%) presoaked Packard Unifilter Plates (GF/C or GF/B) with a Tomtec MachIII U 96 well-plate harvester. After the plates had been dried for 2 hours at 55° C. in a drying chamber scintillation cocktail (BetaPlate Scint; PerkinElmer) was added. Radioactivity was measured in a Microbeta Trilux two hours after the addition of the scintillation mixture.
5-HT6 Receptor Binding Assay
HEK293 cells stably expressing the h-5-HT6 receptor (NCBI Reference Sequence XM 001435) were cultured in RPMI1640 medium supplemented with 25 mM HEPES, 10% fetal calf serum and 1-2 mM glutamine. The membrane preparation was performed as described above. […] On the day of the assay, the membranes were thawed, diluted in assay buffer (50 mM Tris-HCl, 5 mM CaCl2, 0.1% ascorbic acid, 10 μM pargyline, pH 7.4) to a concentration of 8 μg protein/assay and homogenized by gentle vortexing. […] Non-specific binding was defined with 1 μM methiothepin. The binding reaction was carried out for 3.5 hours at room temperature. During the incubation, the plates were shaken on a plate shaker at 100 rpm and terminated by filtration on Packard Unifilter GF/C (0.1% PEI) plates, followed by 2 wash cycles with ice-cold 50 mM Tris-HCl, 5 mM CaCl2.
Data derived from liquid scintillation counting were analyzed by iterative non-linear regression analysis with the use of the Statistical Analysis System (SAS): a program similar to “LIGAND” as described by Munson and Rodbard (Anal. Biochem. 1980, 107, 220-239). Fitting was performed according to formulae described by Feldman (Anal. Biochem. 1972, 48, 317-338). IC50 and Ki values were expressed as geometrical mean.

[2] = target: T2, 5HT2C receptors (Homo sapiens, UniProt P28335); assay: Human 5-HT2C functional high throughput screening assay in CHO-K1 cells (calcium flux); type: cell-based; set-up: expressed in transfected cells; host or cells: CHO-K1 cells; conditions: for EC50: CHO-K1 cells, calcium flux; for Emax: CHO-K1, 5-HT2C, maximum functional response as percentage relative to the effect of serotonin
T2 sequence (P28335 33-458): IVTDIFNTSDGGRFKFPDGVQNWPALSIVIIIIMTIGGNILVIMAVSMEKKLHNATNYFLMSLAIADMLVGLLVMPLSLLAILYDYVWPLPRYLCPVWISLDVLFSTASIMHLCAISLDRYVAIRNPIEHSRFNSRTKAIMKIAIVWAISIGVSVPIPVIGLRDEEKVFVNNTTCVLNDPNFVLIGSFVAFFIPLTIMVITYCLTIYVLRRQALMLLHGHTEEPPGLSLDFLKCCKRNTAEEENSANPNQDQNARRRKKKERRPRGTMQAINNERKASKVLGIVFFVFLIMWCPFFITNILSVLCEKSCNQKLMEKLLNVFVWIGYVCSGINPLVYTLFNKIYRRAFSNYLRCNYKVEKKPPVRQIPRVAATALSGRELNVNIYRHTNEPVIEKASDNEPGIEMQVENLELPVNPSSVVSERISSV
How it was run: (§1)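 FLIPR calcium readout, ex 480/em 530 nm, 25 °C, 3 min post-addition; agonist response normalized to serotonin, 4-parameter fit → EC50, Emax (% serotonin). Cells: frozen CHO-K1 stable lines, serum-free overnight, Ca4 dye + 2.5 mM probenecid, 60 min RT dark.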

[3] = target: T3, 5HT2B receptors (Homo sapiens, UniProt P41595); assay: Human 5-HT2B functional high throughput screening assay in CHO-K1 cells (calcium flux); type: cell-based; conditions: for EC50: CHO-K1 cells, calcium flux; for Emax: 5-HT2B, maximum functional response as percentage relative to the effect of serotonin
T3 construct: expressed in transfected cells; host or cells: CHO-K1 cells
How it was run: as §1

[4] = target: T2, 5HT2C receptors; assay: Human 5-HT2C functional assay in 1321N1 cells (intracellular calcium, FLIPR); type: cell-based; set-up: expressed in transfected cells; host or cells: 1321N1 cells; conditions: 5-HT2c agonist activity, maximum calcium response
Experimental: (ii) Human 5-HT2C Functional Assay in 1321N1 Cells
Functional activity was determined by testing the effect of the compounds on intracellular calcium levels in 1321N1 cells stably transfected with the human 5-HT2C receptor. Cells were seeded into 96-well plates at 50,000 cells/well and grown overnight in tissue culture medium (DMEM with Glutamax I (Invitrogen), containing 10% dFCS, 50 μg/mL Gentamicin, 400 μg/mL Geneticin) at 37° C. and 7% CO2. Growth medium was replaced by medium without dFCS for overnight incubation. Cells were loaded with a fluorescent calcium-sensitive dye in the presence of 1% probenicid according to the manufacturer's protocol (Fluo4 AM, Molecular Devices). Serial compound dilutions (final concentrations 10^−10 to 10^−5 M) were added to the cells either alone or in the presence of serotonin (10^−9 M) and the maximum calcium response was determined using a FLIPR instrument (Molecular Devices). Concentration-response curves were fitted using a four-parameter logistic equation (GraphPad Prism). The concentration at which the compound exerts half its maximal effect is named the ‘effective concentration 50’ or ‘EC50’ and is listed in Table 2.

[5] = target: T4, human serotonin 5-HT2c receptor (Homo sapiens, UniProt P28335); assay: Human 5-HT2C receptor radioligand binding assay (agonist site, [125I]DOI); conditions: 5-HT2c agonist site; transfected CHO cell membranes; 0.2 nM [125I](±)DOI
T4 construct: expressed in transfected cells; host or cells: CHO cells (membrane homogenates)
T4 sequence (P28335 33-458): T2 sequence (P28335 33-458)
Experimental: (i) Human 5-HT2C Receptor Radioligand Binding Assay
Affinity of compounds for the agonist site of the […], receptor in transfected CHO cells was determined in a radioligand binding assay essentially as described by Bryant, H. U., et al., Life Sciences (1996) 59(15), 1259-1268.

[6] = HEK293 membranes expressing h-5-HT6 receptor, 1 nM [3H]-LSD, geometrical mean, read-out: Ki (5-HT6 Agonist Site Radioligand Binding)
[7] = 5-HT2C agonist activity, read-out: EC50
[8] = 5-HT2B agonist activity, read-out: EC50

T3 sequence (P41595 whole entry): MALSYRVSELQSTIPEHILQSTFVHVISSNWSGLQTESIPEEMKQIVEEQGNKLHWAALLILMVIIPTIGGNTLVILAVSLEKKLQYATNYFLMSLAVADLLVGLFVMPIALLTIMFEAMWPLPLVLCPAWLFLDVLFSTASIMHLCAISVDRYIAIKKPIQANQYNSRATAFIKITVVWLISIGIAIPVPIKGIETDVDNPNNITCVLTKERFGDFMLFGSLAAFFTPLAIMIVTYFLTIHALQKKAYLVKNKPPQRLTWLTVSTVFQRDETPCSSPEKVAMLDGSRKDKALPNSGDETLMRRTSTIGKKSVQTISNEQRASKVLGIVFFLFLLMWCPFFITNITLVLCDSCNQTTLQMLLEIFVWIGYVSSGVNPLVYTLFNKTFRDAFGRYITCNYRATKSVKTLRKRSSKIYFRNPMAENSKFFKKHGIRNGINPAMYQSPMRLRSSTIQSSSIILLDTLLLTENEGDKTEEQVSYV
T1 sequence (P50406 whole entry): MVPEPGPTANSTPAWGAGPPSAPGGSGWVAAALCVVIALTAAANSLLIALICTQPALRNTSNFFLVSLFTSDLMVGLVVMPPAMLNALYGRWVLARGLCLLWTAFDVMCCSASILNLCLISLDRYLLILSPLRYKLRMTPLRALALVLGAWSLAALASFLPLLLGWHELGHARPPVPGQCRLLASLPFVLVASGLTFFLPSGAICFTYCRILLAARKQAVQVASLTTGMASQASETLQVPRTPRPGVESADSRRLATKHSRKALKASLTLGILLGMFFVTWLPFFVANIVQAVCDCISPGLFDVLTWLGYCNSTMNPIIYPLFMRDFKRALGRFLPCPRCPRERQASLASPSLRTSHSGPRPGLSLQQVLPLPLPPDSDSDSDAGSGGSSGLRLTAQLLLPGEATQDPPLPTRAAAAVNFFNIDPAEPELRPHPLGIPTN

COc1ccc(OC)c(S(=O)(=O)N2Cc3ccccc3[C@@H]3CN(Cc4ccccc4)C[C@H]3C2)c1 (relative stereo) [Example 15, Trans-2-benzyl-5-(2,5-dimethoxyphenylsulfonyl)-1,2,3,3a,4,5,6,10b-octahydrobenzo[c]pyrrolo[3,4-e]azepine]
Ki [1, 6]: 0.49 µM

CN1C[C@H]2CNC(=O)c3cc(OCc4cccc(F)c4)ccc3[C@@H]2C1 (relative stereo) [Example 217, Trans-8-(3-fluorobenzyloxy)-2-methyl-1,2,3,3a,4,5-hexahydrobenzo[c]pyrrolo[3,4-e]azepin-6(10bH)-one]
EC50 [2, 7]: 0.002 µM
Emax ([2]; read-out: Emax): 120%
Ki [1, 6]: 3.18 µM
EC50 [3, 8]: > 10 µM
Emax [3]: inactive

O=S(=O)(c1cccc(Cl)c1Cl)N1Cc2ccccc2[C@@H]2CN(Cc3ccccc3)C[C@H]2C1 (relative stereo) [Example 9, Trans-2-benzyl-5-(2,3-dichlorophenylsulfonyl)-1,2,3,3a,4,5,6,10b-octahydrobenzo[c]pyrrolo[3,4-e]azepine]
EC50 [4]: > 10 µM
Ki [1, 6]: 0.0171 µM

Cc1ccc(C)c(S(=O)(=O)N2Cc3ccccc3[C@@H]3CN(Cc4ccccc4)C[C@H]3C2)c1 (relative stereo) [Example 17, Trans-2-benzyl-5-(2,5-dimethylphenylsulfonyl)-1,2,3,3a,4,5,6,10b-octahydrobenzo[c]pyrrolo[3,4-e]azepine]
Ki [1, 6]: 0.0551 µM

CN1C[C@H]2CN(S(=O)(=O)c3ccccc3)Cc3ccccc3[C@H]2C1 (relative stereo) [Example 72, Cis-2-methyl-5-(phenylsulfonyl)-1,2,3,3a,4,5,6,10b-octahydrobenzo[c]pyrrolo[3,4-e]azepine]
EC50 [4]: 0.0519 µM
Ki [1]: 0.0717 µM
Ki [5]: 0.065 µM

N#Cc1ccccc1S(=O)(=O)N1Cc2ccccc2[C@@H]2CN(Cc3ccccc3)C[C@H]2C1 (relative stereo) [Example 21, Trans-2-benzyl-5-(2-cyanophenylsulfonyl)-1,2,3,3a,4,5,6,10b-octahydrobenzo[c]pyrrolo[3,4-e]azepine]
Ki [1, 6]: 0.0361 µM

Trans-2-benzyl-5-(2-dichlorophenylsulfonyl)-1,2,3,3a,4,5,6,10b-octahydrobenzo[c]pyrrolo[3,4-e]azepine [Example 19]
Ki [1, 6]: 0.0141 µM

O=S(=O)(c1cc(Cl)ccc1Cl)N1Cc2ccccc2[C@@H]2CN(Cc3ccccc3)C[C@H]2C1 (relative stereo) [Example 10, Trans-2-benzyl-5-(2,5-dichlorophenylsulfonyl)-1,2,3,3a,4,5,6,10b-octahydrobenzo[c]pyrrolo[3,4-e]azepine]
Ki [1, 6]: 0.174 µM

O=S(=O)(c1ccccc1Br)N1Cc2ccccc2[C@@H]2CN(Cc3ccccc3)C[C@H]2C1 (relative stereo) [Example 11, Trans-2-benzyl-5-(2-bromophenylsulfonyl)-1,2,3,3a,4,5,6,10b-octahydrobenzo[c]pyrrolo[3,4-e]azepine]
Ki [1, 6]: 0.0403 µM

COc1cccc(S(=O)(=O)N2Cc3ccccc3[C@@H]3CN(Cc4ccccc4)C[C@H]3C2)c1 (relative stereo) [Example 18, Trans-2-benzyl-5-(3-methoxyphenylsulfonyl)-1,2,3,3a,4,5,6,10b-octahydrobenzo[c]pyrrolo[3,4-e]azepine]
Ki [1, 6]: 0.0231 µM

O=S(=O)(c1cccc2ccccc12)N1Cc2ccccc2[C@@H]2CN(Cc3ccccc3)C[C@H]2C1 (relative stereo) [Example 13, Trans-2-benzyl-5-(naphthalen-1-ylsulfonyl)-1,2,3,3a,4,5,6,10b-octahydrobenzo[c]pyrrolo[3,4-e]azepine]
Ki [1, 6]: 0.0375 µM

O=C1NC[C@@H]2CN(Cc3ccccc3)C[C@H]2c2cccc(F)c21 (relative stereo) [Example 58, Trans-2-benzyl-7-fluoro-1,2,3,3a,4,5-hexahydrobenzo[e]pyrrolo[3,4-c]azepin-6(10bH)-one]
EC50 [2, 7]: 0.03 µM
Emax ([2]; read-out: Emax): 110%
EC50 [4]: 0.029 µM
Ki [5]: 0.031 µM
EC50 [3, 8]: > 10 µM
Emax [3]: inactive

O=C1NC[C@@H]2CN(Cc3ccccc3)C[C@H]2c2ccc(F)cc21 (relative stereo) [Example 55, Trans-2-benzyl-8-fluoro-1,2,3,3a,4,5-hexahydrobenzo[e]pyrrolo[3,4-c]azepin-6(10bH)-one]
Emax [2]: 120%
EC50 ([2]; EC50, 5-HT2C agonist activity): 0.04 µM
EC50 [4]: 0.0106 µM
Ki [5]: 0.0091 µM
Emax [3]: inactive
EC50 ([3]; EC50, 5-HT2B agonist activity): > 10 µM
